The nature of series [1]: Transdermal delivery of testosterone and testosterone phosphate in ovariectomised hairless rats, total testosterone in plasma. It counts as in vivo, Female albino hairless rats. The conditions noted are these: for concentration of testosterone in blood: topical 1 μg in carrier of Example 1. The method, then: Animals: 12 Female albino hairless rats were ovariectomised under isoflurane-induced anesthesia and allowed to recover for 15 days prior to experimentation.
Plasma was removed and stored at −80° C. until assay.
Testosterone Phosphate (TP): 4.41 mg of TP was dissolved in 15 ml of water and then made up to 100 ml with ethanol. […] This was repeated 5 times.
Testosterone (T): 3.94 mg of T was dissolved in 15 ml of water and then made up to 100 ml with ethanol. […] This was repeated 5 times.

For series [2] the following is noted: cited from earlier work.
Series [3] can be described thus: Acute transdermal penetration of 3H-estradiol and 3H-estradiol phosphate in the hairless rat. It counts as in vivo, female albino hairless rats. The conditions noted are these: 24 hour period.
Protocol: Animals: 6 female albino hairless rats were used in this study (n=3 per treatment group).
Transdermal Formulation Preparation and Application: ^3H-E and ^3H-EP were provided by Vital Health Sciences Pty Ltd and prepared in formula approximately 1 hour before application in the carrier cream from Example 1.
The solvents from both ^3H-E and ^3H-EP were evaporated under a stream of nitrogen. Once completely dry 0.498 g of the carrier cream of example 1 was added to ^3H-E and 0.502 g to ^3H-EP and mixed with a glass rod and centrifuged for 1 minute. This was repeated 5 times.
Each formulation was applied to the dorsal skin of an anaesthetised rat in an area of approximately 4 cm^2 marked with an indelible felt tip marker. […] The formulation was ‘rubbed’ in until it appeared to have been absorbed into the skin, which took between 5 to 10 minutes. A tegaderm (3M) patch was applied to the area to prevent animals from removing the formulation.
Series [4] can be described thus: Transdermal delivery of estradiol and estradiol phosphate in ovariectomised hairless rats, total estrogens RIA in plasma.
Protocol: Animals: 23 female albino hairless rats were ovariectomised under isoflurane-induced anaesthesia and allowed to recover for 10 days prior to experimentation.
Blood was collected into EDTA tubes, then centrifuged at 5000 rpm for 10 minutes. Plasma was removed and stored at −80° C. until assayed.
20 μl was transferred to an Eppendorf tube and the solvent was evaporated in a nitrogen stream. Then 0.999 g of the carrier cream from example 1 was added, and mixed with a glass rod and centrifuged. This was repeated 5 times. Final concentration=4.90 μg/ml.
20 μl was transferred to an Eppendorf tube and the solvent was evaporated in a nitrogen stream. Then 1.003 g of the carrier cream from example 1 was added, and mixed with a glass rod and centrifuged. This was repeated 5 times. Final concentration=4.89 μg/ml.
20 μl of these solutions was directly applied to the skin.
Each formulation was applied to the dorsal skin of an anaesthetised rat in an area of approximately 4 cm^2 marked with an indelible felt tip marker. […] The formulation was ‘rubbed’ in until it appeared to have been absorbed into the skin, which took between 5-10 min. […]
The standard curve range for this assay is 2.5-100 pg/ml (r^2=−0.943). Extraction efficiency was determined through a series of spiking assays and was between 90 to 98% using diethyl ether as the extraction solvent for rat plasma and organs. […]

For `C[C@]12CC[C@H]3[C@@H](CCC4=CC(=O)CC[C@@]43C)[C@@H]1CC[C@@H]2O` [T, testosterone], in series [1], the “concentration of testosterone in blood” value is “increased”. The “maximum concentration of total testosterone in plasma (mean±SD)” value in series [1] (topical 1 μg in carrier of Example 1, baseline subtracted) worked out at 30.90 ± 11.00 pg/mL.

`C[C@]12CC[C@@H]3c4ccc(O)cc4CC[C@H]3[C@@H]1CC[C@@H]2O` [E, estradiol]: the “mean blood levels of estradiol 24 hours post dose” value in series [2] (3 mg daily over 30 cm2, carrier with padimate O, 4 women, 9 days) was 0.053 ± 0.007 ng/mL. Besides, the “improvement of circulating estradiol from baseline” value in series [2] (baseline 13±5 pg/ml) is on record as 4 fold.

On to testosterone phosphate [TP], for which the “concentration of testosterone in blood” value in series [1] is given as “increased”.

With `C[C@]12CC[C@@H]3c4ccc(O)cc4CC[C@H]3[C@@H]1CC[C@@H]2OP(=O)(O)O` [EP, estradiol 3:phosphate], the “levels in epidermis and dermis” value in series [3] is “Higher levels of EP were found in the epidermis and dermis”. Also, in series [4] (equivalent doses in carrier of Example 1, over 24 hours), the “plasma concentration of the hormone, EP versus E treatment” value was “at least twice the plasma concentration of the hormone compared to the E treatment”. Further, the “inflammatory symptoms (erythema, oedema) at the application site” value in series [4] (topical in carrier cream of Example 1) is on record as “neither E or EP treatment produced any inflammatory symptoms”.

(Values after patent US8841342B2, “Carrier” (Vital Health Sciences Pty. Ltd., priority 2002, dated 2014).)
